Test results published in patent US20070135338A1, “Human GLP-1 mimetibodies, compositions, methods and uses” (priority 2004, published 2007).

Key:
[1] = test system: normal dogs; assay: Gastric emptying in normal dogs; format: in vivo, beagle dogs; conditions: lidamidine 0.63 mg/kg subcutaneously 60 minutes before the meal, GLP-1 MMB 0.1 mg/kg intravenously 15 minutes before the meal
Protocol: GLP-1 MMB delays gastric emptying in normal dogs. A gastric cannula was surgically implanted into female beagle dogs (10-15 kg) under general anesthesia and allowed-to recover for at least 2 weeks. Dogs were fasted for 24 hours after which water was freely available. The gastric cannula was opened and gastric juice and food remnants were removed with 40-50 ml of lukewarm water. Groups of six dogs were dosed subcutaneously with lidamidine, an alpha2 agonist (0.63 mg/kg), 60 minutes before the meal, a positive control for delay of gastric emptying. Dogs dosed with the vehicle control or GLP-1 MMB (0.1 mg/kg) were dosed intravenously in the cephalic vein 15 minutes before the meal. Five minutes before the meal, the gastric cannula was opened to determine the amount of fluid present in stomach for baseline value and fluid was promptly reintroduced. […] Glucose concentrations were evaluated for collected samples and used to determine the absolute amount of glucose remaining in the stomach at each time point. The percentage of glucose retained in the stomach was determined from the starting value and the concentration of glucose at each time point and plotted as a function of time. The time at which 50% of the gastric contents were retained was determined by fitting of the curves to a single exponential.

[2] = administered subcutaneously; cited from earlier work
[3] = biological target: T1, GLP-1R (Homo sapiens, UniProt P43220); assay: FACS binding assay, HEK293 cells over-expressing the GLP-1R; conditions: 20 nM, 2 hours at 4° C., flow cytometry
T1 construct: expressed in transfected cells; host or cells: HEK293
T1 sequence (P43220 24-463, species assumed): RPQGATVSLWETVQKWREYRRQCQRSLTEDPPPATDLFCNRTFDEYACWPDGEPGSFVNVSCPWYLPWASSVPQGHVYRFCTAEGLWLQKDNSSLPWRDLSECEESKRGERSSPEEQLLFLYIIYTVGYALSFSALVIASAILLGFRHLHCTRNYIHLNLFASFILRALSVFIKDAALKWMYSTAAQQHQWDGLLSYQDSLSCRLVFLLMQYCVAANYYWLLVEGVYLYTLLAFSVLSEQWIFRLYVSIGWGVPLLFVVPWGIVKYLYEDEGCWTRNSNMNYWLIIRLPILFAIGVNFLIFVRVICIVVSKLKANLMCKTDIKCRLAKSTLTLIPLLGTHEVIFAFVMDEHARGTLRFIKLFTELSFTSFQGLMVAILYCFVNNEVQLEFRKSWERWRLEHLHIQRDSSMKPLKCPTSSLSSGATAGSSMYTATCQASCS
Protocol: FACS Binding Assay. The activity of GLP-1 mimetibody was tested in an in vitro FACS binding assay. To determine whether the GLP-1 MMB binds the GLP-1R, HEK293 cells (1×10^6 cells) over-expressing the GLP-1R were incubated with GLP-1 MMB (20 nM) for 2 hours at 4° C. The cells were washed, and a fluorescently labeled secondary […] detection antibody (1 μg/mL goat anti-human IgG, Fc gamma specific) was added for 30 minutes at 4° C. The fluorescence intensity of the cells was monitored via flow cytometry.

[4] = test system: control HEK293 cells; assay: FACS binding assay, control HEK293 cells; conditions: flow cytometry
[5] = biological target: T2, DPP-IV (Homo sapiens, UniProt P27487); assay: DPP-IV cleavage assay; format: in vitro ADME; conditions: 1.2 nM, DPP-IV 1 μg/mL, room temperature, 0-40 minutes
T2 construct: purchased R&D Systems
T2 sequence (P27487 whole entry, species assumed): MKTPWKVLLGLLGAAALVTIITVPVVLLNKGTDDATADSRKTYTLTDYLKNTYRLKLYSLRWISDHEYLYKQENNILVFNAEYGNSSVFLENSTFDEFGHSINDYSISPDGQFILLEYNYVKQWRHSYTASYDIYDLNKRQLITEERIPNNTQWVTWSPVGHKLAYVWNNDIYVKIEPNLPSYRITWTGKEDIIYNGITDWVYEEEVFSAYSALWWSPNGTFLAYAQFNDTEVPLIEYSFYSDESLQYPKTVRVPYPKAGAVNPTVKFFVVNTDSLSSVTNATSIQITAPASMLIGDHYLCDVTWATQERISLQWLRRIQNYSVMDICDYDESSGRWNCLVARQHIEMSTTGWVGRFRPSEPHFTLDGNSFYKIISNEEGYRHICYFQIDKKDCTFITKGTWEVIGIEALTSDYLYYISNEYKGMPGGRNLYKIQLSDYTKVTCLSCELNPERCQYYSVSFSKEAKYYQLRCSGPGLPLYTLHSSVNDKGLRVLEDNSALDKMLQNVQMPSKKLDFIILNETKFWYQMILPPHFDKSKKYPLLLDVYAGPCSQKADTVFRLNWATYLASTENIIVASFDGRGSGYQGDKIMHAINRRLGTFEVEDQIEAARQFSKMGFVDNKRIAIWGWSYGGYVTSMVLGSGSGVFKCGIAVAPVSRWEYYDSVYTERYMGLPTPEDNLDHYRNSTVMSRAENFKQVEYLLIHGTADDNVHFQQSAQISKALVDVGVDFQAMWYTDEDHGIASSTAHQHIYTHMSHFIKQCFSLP
Protocol: DPP-IV cleavage assay. Since GLP-1 is rapidly inactivated by DPP-IV, an in vitro assay was established to quantitate intact (i.e. uncleaved) GLP-1 MMB. Briefly, GLP-1 MMB or peptide (1.2 nM) was incubated at room temperature with DPP-IV (1 μg/mL, R&D Systems). After various times (0, 5, 10, 15, 20, 30, 40 minutes), a DPP-IV inhibitor (100 μM, Linco) was added to quench the reaction. The amount of intact GLP-1 MMB or peptide was measured using the GLP-1 Active ELISA (Linco) and the GLP-1 MMB or peptides for the respective standard curves.

[6] = Human serum stability assay; format: in vitro ADME; conditions: 30 nM, 37° C., GLP-1 Active ELISA
Protocol: Human Serum stability assay. The stability of the GLP-1 MMB in serum was also measured to ensure that other serum proteases were not able to cleave and inactivate the GLP-1 MMB. Briefly, GLP1 peptide or the GLP1 MMB (30 nM) was incubated in human serum at 37° C. After various times, the reactions were quenched with a DPP-IV inhibitor (100 μM, Linco), and the samples were analyzed using the GLP-1 Active ELISA from Linco.

[7] = test system: diabetic db/db mice; assay: Oral glucose tolerance test in diabetic db/db mice, single dose; format: in vivo; conditions: subcutaneous 0.02 to 2 mg/kg, all doses tested, 1.0 mg/g glucose
Protocol: Effects of GLP-1 MMB during an oral glucose tolerance test in diabetic mice. Eight-week old diabetic db/db mice were fasted for 6 hours prior to a subcutaneous injection of the GLP-1 MMB (0.02 to 2 mg/kg). Following dosing, mice were fasted for an additional six hours and a baseline fasting blood glucose was measured. At t=0, mice were given an oral gavage of 1.0 mg/g glucose, and blood glucose was measured at various times.

[8] = test system: diabetic db/db mice; assay: Fasting blood glucose during chronic dosing to diabetic db/db mice; format: in vivo; conditions: 1 mg/kg subcutaneously daily for six weeks
Protocol: Effects of GLP-1 MMB on fasting blood glucose during chronic dosing to diabetic mice. Ten-week old diabetic db/db mice were subcutaneously dosed daily with vehicle or GLP-1 MMB (1 mg/kg) for six weeks. Fasting blood glucose was measured twice per week during the course of the study.

[9] = test system: diabetic db/db mice; assay: Oral glucose tolerance test after chronic dosing to diabetic db/db mice; format: in vivo; conditions: 1 mg/kg daily
Protocol: Effects of GLP-1 MMB on oral glucose tolerance test after chronic dosing to diabetic mice. As in Example 11, ten-week old diabetic db/db mice were dosed daily with vehicle or GLP-1 MMB (1 mg/kg) for six weeks. After 40 days of dosing, the mice were given an oral glucose tolerance test. Briefly, at t=0, mice were given an oral gavage of 1.0 mg/g glucose, and blood glucose was measured at various times.

[10] = test system: diabetic db/db mice; assay: HbA1c after chronic dosing to diabetic db/db mice; format: in vivo; conditions: 1 mg/kg daily for six weeks
Protocol: Effects of GLP-1 MMB on reducing HbAlc after chronic dosing to diabetic mice. As in Examples 11 and 12, ten-week old diabetic db/db mice were dosed daily with vehicle or GLP-1 MMB (1 mg/kg) for six weeks. Before and after six-weeks of dosing, whole blood samples were taken and analyzed for percent HbA1c.

[11] = test system: normal cynomolgus monkeys; assay: Oral glucose tolerance test in normal cynomolgus monkeys; format: in vivo; conditions: single dose 1 mg/kg
Protocol: Effects of GLP-1 MMB on an oral glucose tolerance test in normal cynomolgus monkeys. An oral glucose tolerance test (OGTT) was done in normal cynomolgus monkeys prior to and six days after a single dose of the GLP-1 MMB (1 mg/kg). Briefly, at t=0, monkeys were given an oral gavage of 2.0 mg/g glucose, and blood glucose was measured at various times.

[12] = test system: diabetic mice (db/db); assay: Insulin staining in islets of diabetic mice (db/db) after a single dose; format: in vivo; conditions: single subcutaneous dose 1.5 mg/kg, four weeks later
Protocol: Effects of GLP-1 MMB on insulin staining in islets of diabetic mice (db/db) after a single dose. Twelve-week old diabetic mice (db/db) were treated with a single subcutaneous dose of the GLP-1 MMB (1.5 mg/kg), and the pancreata were harvested four weeks later. The pancreata were sectioned and stained for the presence of insulin.

[13] = test system: diet induced obese mice; assay: Oral glucose tolerance test in diet induced obese mice; format: in vivo
Protocol: GLP-1 MMB lowers blood glucose following an oral glucose tolerance test (OGTT) in diet induced obese mice. To develop a murine model of diet induced obesity, mice were maintained on a high fat diet for at least 27 weeks. Mice became obese and were determined to be diabetic when fasting blood glucose values exceeded 120 mg/dl. To evaluate the effect of GLP-1 MMB therapy on postprandial blood glucose levels, diet induced obese mice were fasted overnight and dosed subcutaneously with 0.02, 0.2, or 2 mg/kg GLP-1 MMB or vehicle control. Six hours after dosing, mice were given a 1.5 mg/g gastric gavage of glucose. Blood glucose levels were determined prior to MMB dosing, at t =0, 15, 30, 60, 90, 120, 150, and 180 minutes using tail vein blood.

[14] = test system: db/db mice; assay: Intraperitoneal glucose tolerance test (IPGTT) in db/db mice; format: in vivo
Protocol: GLP-1 MMB lowers blood glucose in an intraperitoneal glucose tolerance test (IPGTT) in db/db mice. Male db/db mice of approximately 13-15 weeks of age were randomized into treatment groups of six mice based on fasting blood glucose levels. Mice were dosed with either 0.02 mg/kg or 0.1 mg/kg of GLP- I MMB or 0.1 mg/kg of negative control MMB six hours prior to the glucose tolerance test. Five minutes before the glucose tolerance test, a glucose measurement was taken with a hand held glucometer from tail vein blood. Mice were then dosed intraperitoneally with 1 mg/g of D-glucose and blood glucose levels were monitored at 10 min,20 min,30 min, 60 min, 90 min, 120 min, 150 min, and 180 min. […] Additional groups of animals treated in the same manner were sacrificed for measurement of insulin levels at t=10 minutes.

[15] = test system: patients with type 2 diabetes; conditions: type 2 diabetic patients, cited from earlier work
[16] = test system: RINm cells; assay: Insulin secretion in RINm cells (ELISA); format: cell-based; conditions: peptides 0-5 nM, mimetibodies 5 or 50 nM
Protocol: GLP-1 MMB causes insulin secretion in RINm cells. To test the effect of GLP-1 MMB in insulin secretion, RINm cells were treated with increasing concentrations of GLP-1 (7-36) peptide (0-5 nM), exendin-4 peptide (0-5 nM), or various GLP-1 mimetibodies (5 or 50 nM) and the amount of insulin secreted was measured via ELISA. All GLP-1 MMBs tested had activities in stimulating insulin secretion in RINm cells (FIG. 6).

Molecule: CN=C(N)NC(=O)Nc1c(C)cccc1C [lidamidine, reference compound]
- time in which 50% of the gastric contents were emptied [1]: 30.60 ± 6.47 min

Molecule: GLP-1 (7-36) amide: GLP-1 (7-36) amide
- time action [2]: about 50 minutes

Molecule: GLP-1 MMB: GLP-1 mimetibody construct (SEQ ID NO:2): GLP-1 peptide (7-36), flexible linker, J region, IgG1 hinge, CH2 and CH3
- binding to HEK293 cells over-expressing the GLP-1R [3]: binds
- binding to control HEK293 cells [4]: does not bind
- resistance to cleavage by DPP-IV relative to the GLP-1 peptide [5]: significantly more resistant
- stability in human serum [6]: stable in human serum for 24 hours
- glucose excursion during an oral glucose tolerance test [7]: effective in lowering the glucose excursion
- difference in fasting blood glucose, control vs treated, by six weeks [8]: more than 200 mg/dL
- fasting blood glucose by six weeks [8]: 221 mg/dL
- glucose excursion during an oral glucose tolerance test after 40 days of dosing [9]: effective in lowering the glucose excursion
- increase of HbA1C during the six-week period [10]: 109%
- insulin levels in OGTT six days after dosing [11]: significantly increased
- blood glucose levels in OGTT six days after dosing ([11]; 2.0 mg/g glucose): significantly reduced
- insulin staining in pancreata relative to control animals [12]: significantly more insulin staining
- time in which 50% of the gastric contents were emptied [1]: 59.23 ± 14.46 min
- glucose areas under the curve between t=0 and t=180 ([13]; all doses): significant lowering
- fasting blood glucose values at t=0 and all subsequent time points ([13]; subcutaneous 0.02, 0.2, or 2 mg/kg, six hours before 1.5 mg/g glucose): dose dependent decrease
- amount of insulin released at t=10 minutes ([14]; 0.02 mg/kg or 0.1 mg/kg): dose dependent increase
- blood glucose levels over the full time course of IPGTT ([14]; 0.02 mg/kg or 0.1 mg/kg six hours prior, 1 mg/g D-glucose): significant lower

Molecule: GLP-1: Glucagon like peptide-1 given as six-week infusion in the clinic (HAEGTFTSDVSSYLEGQAAKEFIAWLVKGRG)
- fasting and 8-hour mean plasma glucose levels ([15]; six-week infusion): lowered
- β-cell function [15]: improvement in β-cell function

Molecule: exendin-4 peptide: exendin-4 peptide, comparator in insulin secretion assay
- insulin secretion in RINm cells [16]: stimulates insulin release
